From patent publication US8765433B2, “Alcohol dehydrogenases (ADH) useful for fermentive production of lower alkyl alcohols” (priority 2009, dated 2014)

Experiments:
Experiment in all cases: isobutyraldehyde reduction kinetics (A340, initial rates)
Assay type in all cases: biochemical
[1] = molecular target: Achromobacter xylosoxidans SadB (SadB), SEQ ID NO: 26
Excerpt: (§1) This example describes preparation of ADH-gene constructs for over-expression/purification and measurement of enzyme activities using a time-course assay. Horse-liver ADH (HLADH; A-6128) was purchased from Sigma. Achromobacter xylosoxidans SadB (SadB), Saccharomyces cerevisiae ADH6 (ScADH6) and ADH7 (ScADH7), Entamoeba histolytica ADH1 (EhADH1), Bos Taurus Aldehyde Reductase (BtARD), Beijerinckia indica subsp. Indica ATCC 9039 (BiADH), Clostridium beijerinckii ADH (CbADH), Rana perezi ADH8 (RpADH8), Rattus norvegicus ADH1 (RnADH1), Thermus sp. ATN1 ADH (TADH), Phenylobacterium zucineum HLK1 ADH (PzADH), Methylocella silvestris BL2 ADH (MsADH), Acinetobacter baumannii AYE ADH (AbADH), Geobacillus sp. WCH70 ADH (GbADH), Vanderwaltozyma polyspora DSM 70294 ADH (VpADH), Mucor circinelloides ADH (McADH), and Rhodococcus erythropolis PR4ADH (ReADH) were the candidates for which subclones were prepared for protein expression and purification.
(§2) As a routine practice, the crude extracts and purified proteins were assayed for butanol oxidation activity, in order to ensure that the recombinant proteins were active throughout the purification process. […] Alcohol oxidation activities were carried out in 50 mM sodium phosphate buffer at pH 8.8 and aldehyde reduction reactions were assayed in 190 mM potassium phosphate buffer at pH 7.0. Depending on the nature of reaction being carried out, the enzyme and cofactor stocks were diluted in the reaction buffers at the respective pHs. Either buffer or cell extract prepared from the proprietary E. coli strain (with no ADH plasmid) was used as the negative control for assays with purified protein and cell-free extracts, respectively.
(§3) Kinetic constants of the ADH enzymes were calculated and compared to identify those candidate ADH enzymes with the most desirable properties for the conversion of isobutyraldehyde to isobutanol in the last step of the engineered pathway for isobutanol production. The assays for determining the kinetic constants were carried out using initial rates from the assays described above. […] The concentration of a given enzyme was such that it was conducive for the measurement of initial velocities over a 1-min time course. For each enzyme, Michaelis-Menten plots were generated with a broad range of substrate concentrations. Rough estimates of KM were obtained, based on which the assays were redesigned so as to use substrate concentrations in the range 0.5 to 10 times the KM value, to be able to obtain the appropriate kinetic constants. […] Reactions with isobutanol substrate were performed at 30° C. in 50 mM Sodium phosphate buffer, pH 8.8, containing 7.5 mM NAD. The Enzyme kinetics module (Version 1.3) of SigmaPlot 11 (Systat Software, Inc.) was used to fit data to Michaelis-Menten equations and calculate the kinetic constants. The kcat/KM is derived from the individual numbers of kcat and KM and not an experimentally determined value.
(§4) For those enzymes marked with an asterisk in Table 7, at least 3 assays were performed with separate preparations of the enzyme. All other numbers are values from either one assay or are averages from 2 assays performed with the same enzyme sample.

[2] = molecular target: T1, Saccharomyces cerevisiae ADH6 (ScADH6), SEQ ID NO: 22 (Saccharomyces cerevisiae, UniProt Q04894); details: relative to SadB
T1 sequence (Q04894 1-360): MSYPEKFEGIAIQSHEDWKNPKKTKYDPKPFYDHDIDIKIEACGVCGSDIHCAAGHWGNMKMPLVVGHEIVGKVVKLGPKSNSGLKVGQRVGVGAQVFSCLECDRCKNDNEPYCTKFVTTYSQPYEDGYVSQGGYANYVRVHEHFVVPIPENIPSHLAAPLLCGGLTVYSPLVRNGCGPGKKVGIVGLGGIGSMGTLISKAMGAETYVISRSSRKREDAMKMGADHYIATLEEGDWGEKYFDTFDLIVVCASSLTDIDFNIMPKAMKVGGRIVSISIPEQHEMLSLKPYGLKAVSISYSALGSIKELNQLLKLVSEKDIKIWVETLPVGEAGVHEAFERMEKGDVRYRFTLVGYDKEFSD
Excerpt: as §1, §2, §3, §4

[3] = molecular target: T2, Saccharomyces cerevisiae ADH7 (ScADH7), SEQ ID NO: 23 (Saccharomyces cerevisiae, UniProt P25377)
T2 sequence (P25377 1-361): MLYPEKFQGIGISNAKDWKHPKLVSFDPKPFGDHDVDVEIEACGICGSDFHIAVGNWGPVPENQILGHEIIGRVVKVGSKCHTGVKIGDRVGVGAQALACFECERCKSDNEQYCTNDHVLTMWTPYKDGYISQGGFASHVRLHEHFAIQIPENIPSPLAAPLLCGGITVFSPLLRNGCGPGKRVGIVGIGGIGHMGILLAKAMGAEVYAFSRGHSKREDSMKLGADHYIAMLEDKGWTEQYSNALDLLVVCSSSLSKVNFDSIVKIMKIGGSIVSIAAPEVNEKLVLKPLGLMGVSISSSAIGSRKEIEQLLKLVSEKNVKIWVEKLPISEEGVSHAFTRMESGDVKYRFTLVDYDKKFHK
Excerpt: as §1, §2, §3, §4

[4] = molecular target: T3, horse liver ADH (HLADH), SEQ ID NO: 21 (Equus caballus, UniProt P00327); details: relative to SadB
T3 construct: purchased Sigma A-6128
Excerpt: as §1, §2, §3, §4

T3 sequence (P00327 whole entry): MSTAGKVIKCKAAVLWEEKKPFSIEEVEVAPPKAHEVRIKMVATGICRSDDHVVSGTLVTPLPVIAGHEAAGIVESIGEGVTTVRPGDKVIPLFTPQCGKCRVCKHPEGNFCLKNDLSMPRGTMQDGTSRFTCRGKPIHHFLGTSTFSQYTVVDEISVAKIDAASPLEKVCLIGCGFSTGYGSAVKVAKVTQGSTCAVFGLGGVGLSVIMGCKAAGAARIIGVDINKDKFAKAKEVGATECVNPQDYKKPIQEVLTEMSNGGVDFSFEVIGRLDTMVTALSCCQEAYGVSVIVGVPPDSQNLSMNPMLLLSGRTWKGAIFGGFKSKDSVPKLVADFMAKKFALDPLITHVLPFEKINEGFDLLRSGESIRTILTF

## CC(C)CO [isobutanol, 2-methylpropan-1-ol]
[1]; reference (SadB itself)
  KI as a percentage of the same parameter for SadB: 100%
[2]
  KI as a percentage of the same parameter for SadB: 650%
[3]; read-out: KI (Isobutanol)
  Ki: 88 mM
[3]; relative to SadB
  KI as a percentage of the same parameter for SadB: 49%
[4]
  KI as a percentage of the same parameter for SadB: 1%

## CC(C)C=O [isobutyraldehyde]
[1]; 30° C., pH 7.0, 200 μM NADH, read-out: KM (Isobutanal)
  Km: 1000 µM
[1]; isobutyraldehyde reduction, 30° C., pH 7.0, 200 μM NADH
  kcat: 109 s⁻¹
[1]; reference (SadB itself)
  KM as a percentage of the same parameter for SadB: 100%
  kcat as a percentage of the same parameter for SadB: 100%
  kcat/KM as a percentage of the same parameter for SadB: 100%
[2]
  KM as a percentage of the same parameter for SadB: 60%
  kcat as a percentage of the same parameter for SadB: 43%
  kcat/KM as a percentage of the same parameter for SadB: 77%
[3]; relative to SadB
  KM as a percentage of the same parameter for SadB: 30%
  kcat as a percentage of the same parameter for SadB: 33%
  kcat/KM as a percentage of the same parameter for SadB: 114%
[4]
  KM as a percentage of the same parameter for SadB: 10%
  kcat as a percentage of the same parameter for SadB: 7%
  kcat/KM as a percentage of the same parameter for SadB: 78%
